Row | melting point [°C] | Structure (SMILES)
1 | 174 to 176 | CC(C)(O)CNc1nccc(-c2c(-c3ccc(F)cc3F)nc3c(CC4CC4)nccn23)n1
2 | 139 to 142 | O=C(c1ccccc1)c1ccc(NC(=O)C(O)(C(F)F)C(F)F)cc1
3 | 220 | CC1=CCC(=C2C(=O)C3(CS(=O)(=O)O)CCC2C3(C)C)C=C1 (stereo unspecified)
4 | 194 | N#CCC(=O)N[C@H]1CC[C@H](CCN2CCC(c3cccc4c3CCO4)CC2)CC1
5 | 166 | CCc1cccc(CC)c1NCC(=O)NC(=S)NNC
6 | 211 to 215 | c1ccc(-c2cc(-c3csc(Nc4ccccn4)n3)on2)cc1
7 | 126 to 127 | COc1ccc2c(c1)C1(CCCC1)C(O)(CC#N)CC2 (stereo unspecified)
8 | 193 to 196 | CCCCCCCCCCCCCCCCNc1ccc(C(=O)NS(=O)(=O)c2ccc(N)cc2)cc1
9 | 185 to 187 | COc1cccc(C=Cc2nc3c(s2)N(C(C)=O)CCC3)c1OC
10 | 98 to 99 | Cc1ccc(C(=O)NCCc2ccccn2)c(Nc2ccc3[nH]ncc3c2)n1
11 | > 300 | Cc1sc2[nH]c(=O)c(=O)[nH]c2c1C
12 | 138 to 145 | CC(C)(C)c1cc(CN)nn1-c1ccc(S(C)(=O)=O)cc1
13 | 84 to 85 | COC(=O)c1ccc(OCCNC(=O)C2Cc3ccccc3N2S(=O)(=O)c2ccc(-c3cc(C(F)(F)F)ccc3Cl)cc2)cc1F (stereo unspecified)
14 | 146 to 148 | O=[N+]([O-])c1ccc2oc(-c3sccc3CBr)nc2c1
15 | 202 to 203 | CCOCc1nc2c(N)nc3cc(OCCCc4cccs4)ccc3c2n1CC(C)(C)NS(C)(=O)=O
16 | 119 to 120 | O=C1OC(COc2ccc(CCCO)cc2)CN1c1ccc(Cl)cc1 (stereo unspecified)
17 | 95 | CCOCC1(F)CCN([C@@H](c2ccc(C(F)(F)F)cc2CN(Cc2cc(C(F)(F)F)cc(C(F)(F)F)c2)c2nnn(C)n2)C(C)C)CC1
18 | 131 | Cc1ccsc1C(C)N(O)C(N)=O (stereo unspecified)
19 | 218 to 219 | Nc1cc(=O)n(-c2ccccc2)[nH]1
20 | 125 to 128 | CC(=O)CCC1(C(N)=O)c2ccccc2-c2ccccc21
21 | 127 to 130 | CN1CCN(Cc2ccc(NC(=O)c3cccc4cc(Oc5cc(N)ncn5)ccc34)cc2C(F)(F)F)CC1
22 | 161 to 162 | CC(C)(C)C(=O)OCn1cnc2c(OCc3ccccc3)nc(N)nc21
23 | 270 | CNC1N=CN(c2c(Cl)cccc2Cl)C(=O)N1 (stereo unspecified)
24 | 96 to 97 | C[C@@H](n1ncn(-c2ccncc2)c1=O)[C@@]1(c2ccc(F)cc2F)CO1
25 | 157 to 159 | O=C1SC(Cc2ccc(OCCON=Cc3ccc(-c4ccccc4)cc3)cc2)C(=O)N1C(c1ccccc1)(c1ccccc1)c1ccccc1 (stereo unspecified)

Row | melting point [°C] | Structure (SMILES)
26 | 215 to 218 | O=C(O)C1Cc2c(c(Cl)cc3c(-c4ccc(F)cc4)noc23)O1 (stereo unspecified)
27 | 55 | CCCN(c1nc(-c2ccc(OC)cc2Cl)c(C)s1)c1cc(-c2ccccc2C)ccc1OC
28 | 169 | O=Cc1ccc(-c2cn3ccnc3s2)cc1
29 | 70 to 71 | COCOCc1nc(-c2ccccc2)oc1CO
30 | 70 to 71 | Cn1ncc(C=O)c1-c1ccoc1
31 | 126 to 129 | C[C@]12CCC(=O)C=C1CC[C@@H]2c1cn[nH]n1
32 | 253 to 256 | CC1CCCN(C(=O)C2Cc3cc(O)ccc3N2c2ccc(=O)n(C)n2)C1 (stereo unspecified)
33 | 208 to 210 | C=C1c2cccc(NC(=O)c3c(Cl)cccc3Cl)c2OC1(C)OC (stereo unspecified)
34 | 190 | CCC(C(=O)c1ccc(Cl)cc1)n1ncn(-c2ccc(N3CCN(c4cnccn4)CC3)nc2)c1=O (single isomer, unassigned; (+))
35 | 134 to 137 | Nc1cc(S(=O)c2ccc(-c3ccccc3)cc2)ccc1Cl (stereo unspecified)
36 | 85 to 87 | CCCC[C@H](NC(=O)[C@H](C)NC(=O)OCc1ccccc1)C(=O)CSCc1ccco1
37 | 84 to 85 | CC(C)(C)Nc1nc(Cl)c(C#N)cc1F
38 | 233 | CCOc1nc(NC(C)=O)nc2ccc(Cl)nc12
39 | 175 to 176 | c1ccc2c3c(cnc2c1)OCCN3
40 | > 250 | CCOC(=O)CNC(=O)Nc1ccc2oc3c(OC)ccc(C(=O)Nc4c(Cl)cncc4Cl)c3c2c1
41 | 68 to 69 | CCCCCCCc1c(C(=O)OCC)[nH]c(C)c1C
42 | 210 to 212 | O=C1CC=C(c2c[nH]c3ccc([N+](=O)[O-])cc23)CC1
43 | 111 to 112 | COc1ccc(C(=O)NCc2ccc(OCCN(C)C)cc2)cc1OC
44 | 117 to 118 | Fc1ccccc1CNc1nc(Cl)ncc1F
45 | 274 to 276 | Cc1[nH]c(C(=O)NCC(=O)O)c(C)c1-c1nc2ccc(C(=O)c3ccccc3)cc2[nH]1
46 | 217 | CC(C)(C)OC(=O)CNC1(c2ccccc2Cl)C(=O)Nc2ccc(Cl)cc21 (stereo unspecified)
47 | 69 to 72 | CC(C)CCCC(C)CCCC(C)CCCC(C)CCP(=O)(O)O (stereo unspecified)
48 | 98 to 100 | COCCCNS(=O)(=O)NC(=O)OC/C=C/c1ccc(OCCOC)cc1Oc1ncc(C(F)(F)F)cc1Cl
49 | 252 to 254 | Cc1ccc(C(=O)O)c(Nc2ccc3[nH]ncc3c2)n1
50 | 188 to 189 | COc1cc(OC)c2c(c1)N(C)C(c1cc(C)c(O)c(C)c1)N=C2 (stereo unspecified)

Row | melting point [°C] | Structure (SMILES)
51 | 55 to 57 | CCCCCCCCCCNC(=O)c1ccccc1[N+](=O)[O-]
52 | 195 | COc1ccccc1-c1ccc(C[C@@H](NC(=O)c2c(Cl)cccc2Cl)C(=O)O)cc1
53 | 186 to 188 | Cc1ccc2nc(-c3ccc(Cl)cc3)c(CN3CCCC3=O)n2c1
54 | 110 to 112 | NC(=O)N(O)CC1CCCCCC1
55 | 224 to 227 | NS(=O)(=O)c1cccc(NC(=O)Nc2c(F)c(F)c(F)c(F)c2F)c1
56 | 174 to 176 | Cc1cccc(C)c1N=CNc1c(C)cccc1C
57 | 110 to 114 | C=Cc1ccc(OC)c(OC)c1
58 | 130 to 150 | COc1cc(C(=O)N2CCC(CCN3CCC(O)(c4nc5ccccc5n4Cc4ccc(F)cc4)CC3)(c3ccc(Cl)c(Cl)c3)C2)cc(OC)c1OC (stereo unspecified)
59 | 141 | NC(=O)N(O)Cc1ccc(Oc2ccc(-n3ccnc3)cc2)s1
60 | 98.5 to 100 | CCOC(=O)C1=Cc2cc(Br)c(F)cc2OC1C(F)(F)F (stereo unspecified)
61 | 159 to 160 | O=C(O)[C@H]1[C@H](CS)N(Cc2ccccc2)C(=O)N1Cc1ccccc1
62 | 146 to 149 | O=CC[C@@H](O)[C@H](O)[C@H](O)CO
63 | 201 to 204 | CC(C)c1ccccc1N1/C(=N\N=C/c2ccc(-c3ncn(-c4ccc(OC(F)(F)F)cc4)n3)cc2)SCC1C (stereo unspecified)
64 | 60 to 63 | CC(NC(=O)C=Cc1ccccc1F)c1ccc2c(c1)N(C)CCC2 (stereo unspecified)
65 | 69 to 71 | COc1cc(-c2ccccc2)on1
66 | 205 to 206 | Cc1cc(O)c(C(=O)Nc2ccc(S(=O)(=O)C(F)(F)F)cc2Cl)c(C)c1S(C)=O (stereo unspecified)
67 | 179 | CC1NC2=NCCN2C1c1ccccc1 (stereo unspecified)
68 | 174 to 176 | O=C(O)CCC(=O)c1ccc(-c2ccc(F)cc2)cc1
69 | > 320 | O=C(O)c1ccc(Cc2n[nH]c3c2c(=O)n(-c2ccccc2)c2ncccc32)cc1
70 | 44 to 48 | CCc1ccc(C(=O)c2ccc(F)cc2)c(O)c1
71 | 147 to 148 | COc1ccc(CNC(=O)c2cc([N+](=O)[O-])ccc2N[C@H]2CC[C@@H](OC(C)=O)CC2)cc1OC
72 | 186 to 188 | Cc1c(CC(=O)O)c2cc(OCc3ccc4ccccc4n3)ccc2n1C
73 | 311 to 316 | CC1(C)C(=O)Nc2cc3[nH]c(-c4ccco4)nc3cc21
74 | 140 to 142 | O=C(O)c1cc2ccccc2nc1N[C@H](Cc1ccccc1)C(=O)O
75 | 117 to 121 | NCCc1ccc(N2C(=O)N(c3ccc(Cl)cc3Cl)Cc3cnc(Nc4ccccc4)nc32)cc1

Row | melting point [°C] | Structure (SMILES)
76 | 89 to 90 | CC(C)(C)c1nc2cc(N3CCCC3)c(N=C=S)cc2s1
77 | 108 to 110 | O=C(Nc1ccc(-c2ncon2)cc1)OCC(Cl)(Cl)Cl
78 | 158 to 159 | COc1ccc(Cl)cc1-n1cncc1-c1ccc(C(F)(F)F)cc1
79 | 124 to 125 | CC1N=C(N2CCN(C)CC2)NN=C1c1ccccc1 (stereo unspecified)
80 | 170 to 171 | COc1cc(OC)c2c(=O)c3ccccc3oc2c1
81 | > 300 | Cc1[nH]c(=O)c(C#N)c2c1CC(c1ccccn1)CC2 (stereo unspecified)
82 | 192 to 194 | CC(C)OC(=O)CSc1ncnc2c(O)n(C)nc12
83 | 175 | COc1cccc(C(=O)NCC2CCCCC2)c1NC(=O)N[C@@H](Cc1ccc(NC(=O)c2c(Cl)cccc2Cl)cc1)C(=O)O
84 | 54 | O=C1CC2(CCCC2)c2ccc(Cl)cc21
85 | 159 to 160 | O=Cc1c(-c2ccccc2)nn(-c2ccccc2)c1-c1ccccc1
86 | 117 to 118 | O=C(OC#CCc1ccccc1)C1CN=CNC1 (stereo unspecified)
87 | 121 | C=CCN1CC(c2ccc([N+](=O)[O-])cc2F)CCS1(=O)=O (stereo unspecified)
88 | 166 | Nc1ccc2ccc(Oc3cccc(Cl)c3)nc2n1
89 | 204 to 205 | COc1cc(COc2nn(-c3ccccc3)cc2/C=C/C(=O)O)ccc1OCc1nc(-c2ccco2)oc1C
90 | 254 to 256 | COc1cc(C(=O)O)c2oc(-c3ccc(OC)c(F)c3)cc2c1
91 | 253 to 254 | COCOc1ccc(-c2ccc(C=C3SC(=O)NC3=O)cc2)cc1C12CC3CC(CC(C3)C1)C2
92 | 60 to 63 | COC[C@H](Cc1ccccc1)NC(=O)[C@@H](CC(=O)OCc1ccccc1)NC(=O)OC(C)(C)C
93 | 148 to 150 | Nc1sc2c(c1C(=O)c1ccc(Cl)cc1)CCN(CCc1ccccc1)C2
94 | 293 to 296 | NC(=O)c1nc(-c2cccc(O)c2)nc2c1[nH]c(=O)n2-c1ccccc1-c1ccccc1
95 | 38 to 42 | CN(C)CCCCNC(=O)c1cccc(-c2nnc(CSCCOc3ccccc3)o2)c1
96 | 143 to 147 | COc1ccc(C(=O)C2(O)CCCCC2C(=O)NCC(C)C)cc1 (stereo unspecified)
97 | 203 to 206 | O=C(O)CC(=O)Nc1ccc(Br)cc1C(=O)O
98 | 145 to 147 | CCOC(=O)c1cc(O)c(C(=O)c2ccc(C)cc2)c([N+](=O)[O-])c1

Row | Structure (SMILES) | melting point [°C]
99 | Cc1cc(Cl)c(N=C2NCCN2)cc1[N+](=O)[O-] | 198 to 201
100 | O=c1[nH]nc2n1-c1ccc(Cl)cc1C(c1ccccc1Cl)=CC2 | 250 to 251
101 | N#Cc1nn(-c2c(Cl)cc(C(F)(F)F)cc2Cl)cc1OC(F)F | 85 to 87

Source: a melting point compilation (Tetko et al.; mined from patent text by program, amines drawn as free bases though some values may be those of a salt)
